{"source": "ChEMBL document CHEMBL1138758", "about": "“Efficient method for high-throughput virtual screening based on flexible docking: discovery of novel acetylcholinesterase inhibitors” (J Med Chem, 2004)", "note": "pIC50: −log10 of the molar value."}
{"test": "Inhibitory activity towards acetylcholine esterase (AChE)", "parameters": "species or system Tetronarce californica"}
{"compound": "CC(Cc1ccc(O)cc1)C1CCC(C)C(c2ccc(O)cc2)C1", "note": "(centres undefined)", "pIC50": 6.21}
{"compound": "CCCc1cc(-n2cccn2)ccc1C(=O)ONC(=N)c1ccc(C(F)(F)F)cc1", "pIC50": 4.89}
{"compound": "Cc1c(/N=C/c2ccccc2O)cc2c(c1N)C(C)(C)CC2(C)C", "pIC50": 4.80}
{"compound": "Cc1nc(N)ncc1-c1nnnn1-c1ccc(-c2ccccc2)cc1", "pIC50": 4.57}
{"compound": "Fc1ccc(N(Cc2ccc3c(c2)OCO3)C(=S)Nc2cccc(C(F)(F)F)c2)cc1", "pIC50": 5.10}
{"compound": "Cc1cc(C2(c3cc(C)c(O)c(C)c3)CCCCC2)cc(C)c1O", "pIC50": 4.82}
{"compound": "O=C(CC1S/C(=N/c2ccc(C3CCCCC3)cc2)NC1=O)Nc1ccc(OC(F)(F)F)cc1", "note": "(centres undefined)", "pIC50": 5.54}
{"compound": "CN(C)c1ccc(-c2c3cc(O)c(=O)cc-3oc3cc(O)c(O)cc23)cc1", "pIC50": 4.66}
{"compound": "COc1ccc(/N=C/c2cn(-c3ccc(OC)cc3)cc2/C=N/c2ccc(OC)cc2)cc1", "pIC50": 4.85}
{"compound": "C/C(=N/O)c1ccc(Cl)c(NC(=O)c2c(-c3ccccc3Cl)noc2C)c1", "pIC50": 5.17}
{"compound": "COc1cc(N)c(Cl)cc1C(=O)NC1CCN(Cc2ccccc2)CC1", "note": "[CLEBOPRIDE]", "pIC50": 6.05}
{"compound": "O=C(O[C@@H]1Cc2c(O)cc(O)cc2O[C@@H]1c1ccc(O)c(O)c1)c1cc(O)c(O)c(O)c1", "note": "[EPICATECHIN GALLATE]", "pIC50": 4.55}
{"compound": "O=C(Nc1cccc(C2=NCCN2)c1)Nc1cccc(C2=NCCN2)c1", "note": "[IMIDOCARB]", "pIC50": 6.23}
{"compound": "CNC(=O)Oc1ccc2c(c1)[C@]1(C)CCN(C)[C@@H]1N2C", "note": "[PHYSOSTIGMINE]", "pIC50": 6.44}
